Results on ten compounds are retold here after US4052515A, “Method of treating acne with alcohol” (priority 1976, dated 1977).

Test [1] deals with Corynebacterium acne lysate supernatant lypolytic activity. The test can be described thus: Lypolytic activity of C. acne lysate supernatant, tributyrin turbidity. The class given is biochemical. The following applies: for Percent Inhibition C. Acne: tributyrin 0.05% substrate, initial rates of turbidity change; for Effect on inhibiting the hydrolysis of the tributyrin: summary in words for C. acne and comedo homogenate. The method, then: Cells of a pure culture of Corynebacterium acne are collected, lysed in 0.05M phosphate buffer and centrifuged. The resultant supernatant is also used to measure lypolytic activity.
(§1) Tributyrin (0.05%) is dispersed in the phosphate buffered solutions by sonication, the alcohol is added, and then an aliquot of the enzyme solution added. The decrease in turbidity is measured spectrophotometrically. Inhibitory activity is determined by comparing initial rates of change.

Test [2] deals with Comedo homogenate lypolytic activity. The test can be described thus: Lypolytic activity of comedo homogenate supernatant, tributyrin turbidity. The class given is biochemical. The following applies: tributyrin 0.05% substrate. The method, then: Comedones are collected from the face of subjects with varying degrees of acne and homogenized in 0.05M phosphate buffer, pH 8.1. The mixture is centrifuged and the supernatant is used to measure lypolytic activity.
as §1

Test [3] can be described thus: Topical application of compositions to skin affected by acne. The format is in vivo. To be noted: 3 to 10 milligrams composition per square centimeter of skin, about 3 weeks. The text has this:
When treating acne it is preferred that a regimen involving multiple applications of the composition over a period of days or weeks be employed. The amount of the composition applied to the affected areas which constitutes an effective amount will vary depending on the particular person and degree of acne. It is preferred that the composition be applied to the affected areas at a rate of 3 milligrams of composition per square centimeter to 10 milligrams composition per square centimeter of treated tissue.
The above compositions show an anti-acne effect when topically applied to skin areas so affected at a rate of between 3 to 10 milligrams composition per square centimeter of skin over a period of about 3 weeks.

Test [4] concerns P. Ovale cells and artificial sebum lipid. Kind of test: Irritation by artificial sebum plus P. Ovale cells on guinea pig back. The class given is in vivo, guinea pigs. The following applies: for Average Irritation Grade: graded after 5 days, scale 0-4, 4 most severe, 0% control 2.0; for Reduction of irritation produced by P. Ovale cells and artificial sebum lipid: summary in words. The method, then:
(§2) A lipid mixture resembling human sebum in composition, but lacking free fatty acids, is applied to the back of guinea pigs along with an inoculum of P. Ovale cells. Alcohol is added to the artificial sebum lipid at concentrations of 1 and 5%. Irritation is graded after 5 days on a scale of 0-4, 4 being most severe.

Test [5] has as its system Pityrosporum ovale whole cell lipase activity. Kind of test: Whole cell lipase activity, pH stat. The following applies: for Percent Inhibition Tributyrin / Percent Inhibition Triolein: P. Ovale, alcohol 0.5mMoles; for Percent Inhibition Tributyrin: tributyrin substrate; for Percent Inhibition Triolein: triolein substrate; for Inhibitory activity against different types and strains of skin microorganisms and substrates: summary in words over all strains and both substrates. The class given is cell-based. The method, then:
Cells from three strains of C.Acnes and one strain of Pityrosporum ovale are collected and whole cells used to measure lipase activity. Tributyrin and triolein are used as substrates by dispersing them in a histidine-buffered system by sonication and measuring the acid changes with a pH stat. Alcohols are added to the substrate at a level of 0.5mMoles.

Test [6] relates to P. Ovale cells and artificial sebum lipid. Kind of test: Parallel experiment: irritation and free fatty acid in artificial sebum after 5 days. The format is in vivo, guinea pigs. To be noted: for Irritation Grade: after 5 days, control 3; for % Free Fatty Acids: lipids extracted after 5 days, control 12.5. The method, then: as §2
In a parallel experiment, 1-octanol is mixed in the artificial sebum in varying ratios. After 5 days the lipids are extracted and the quantity of free fatty acid determined.

For test [7] the following is noted: Stoler disclosure; cited from earlier work.
Where [8] appears, read: 1.0% alcohol in artificial sebum.
Where [9] appears, read: 5.0% alcohol in artificial sebum.

As to `CCCCO` [1-butanol, reference compound], the “Percent Inhibition C. Acne” value in test [1] (0.1% alcohol) is given as 0%. Further, the “Effect on inhibiting the hydrolysis of the tributyrin” value in test [1] is recorded as “no measurable effect”. The “Percent Inhibition Comedo Homogenate” value in test [2] (0.1% alcohol) came out at 0%.

Turning to `CCCCCCCCCCO` [1-decanol], in test [3], the Anti-acne effect result is “substantially the same results”. The “Average Irritation Grade” value in test [4] (setting [8]) came to 1.3. For the same compound, the “Average Irritation Grade” value in test [4] (setting [9]) was found to be 0.6. The “Reduction of irritation produced by P. Ovale cells and artificial sebum lipid” value in test [4] was “able to reduce the irritation”. In addition, in test [5], the “Percent Inhibition Tributyrin” value came out at 63%; the “Percent Inhibition Triolein” value turned out to be 24%; the “Inhibitory activity against different types and strains of skin microorganisms and substrates” value is listed as “broad inhibitory activity”.

`CCCCCCCCCCCCO` [1-dodecanol]: in test [3], the Anti-acne effect result was “substantially the same results”. Further, the “Average Irritation Grade” value in test [4] (setting [8]) is 1.3; in test [4] (setting [9]), 1.0. The “Reduction of irritation produced by P. Ovale cells and artificial sebum lipid” value in test [4] is on record as “able to reduce the irritation”.

As for `CCCCCCCCO` [1-octanol], the “Average Irritation Grade” value in test [4] (setting [8]) is on record as 0; in test [4] (setting [9]), 0.6. Besides, the “Reduction of irritation produced by P. Ovale cells and artificial sebum lipid” value in test [4] was “able to reduce the irritation”. In addition, the “Irritation Grade” value in test [6] (alcohol concentration 0.5) came out at 2; in test [6] (alcohol concentration 1.0), 2; in test [6] (alcohol concentration 5.0), 0.5. The “% Free Fatty Acids” value amounted to 2.5% in test [6] (alcohol concentration 0.5), 1.7% in test [6] (alcohol concentration 1.0) and 2.5% in test [6] (alcohol concentration 5.0). Moreover, the “Percent Inhibition C. Acne” value in test [1] (0.03% alcohol) came out at 63%; in test [1] (0.1% alcohol) it was 100%. In test [1], the “Effect on inhibiting the hydrolysis of the tributyrin” value is reported as “positive effect”. Also, the “Percent Inhibition Tributyrin” value in test [5] came out at 60%. Also, the “Percent Inhibition Triolein” value in test [5] is reported as 12%. The “Inhibitory activity against different types and strains of skin microorganisms and substrates” value in test [5] is “broad inhibitory activity”. For the same compound, the figures for the “Percent Inhibition Comedo Homogenate” value in test [2] (0.03% alcohol) and in test [2] (0.1% alcohol) were 20% and 27%, respectively.

Consider `CCCCCCC(C)O` (centres unmarked) [2-octanol], for which the Anti-acne effect entry in test [3] is given as “substantially the same results”.

In the case of `CCCCCCC=CCCO` [3-decen-1-ol], the Anti-acne effect entry in test [3] was “substantially the same results”.

Regarding `CCC=CCCO` [3-hexen-1-ol], in test [3], the Anti-acne effect result is reported as “substantially the same results”.

On to `CCCO` [Propanol], for which the Anti-acne effect entry in test [3] was “substantially the same results”.

Consider `OCc1ccccc1` [benzyl alcohol], for which, in test [7], the Anti-acne agent result is on record as “an effective anti-acne agent” and the “Inhibition of the formation of free fatty acids” value is on record as “effective in inhibiting the formation of free fatty acids”.

For the compound `CC(C)O` [isopropanol], the Anti-acne effect result in test [3] is listed as “substantially the same results”.
